The values that follow come from patent US11839613B2, “Pyrimidine derivatives as PGE2 receptor modulators” (IDORSIA PHARMACEUTICALS LTD, priority 2017, dated 2023).

In general, IC50 refers to the point on the concentration scale where inhibition reaches its midpoint.

Test [1] addresses PTGER2 (EP2) (Homo sapiens (Human), UniProt P43116). The test is described as follows: hEP2 b-arrestin assay (PathHunter HEK 293 PTGER2 b-arrestin cells). It is filed as cell-based. Particulars: antagonistic activity, beta-arrestin assay; read-out: hEP2 b-arr IC50. The method, then:
Plate is pre-incubated 15 minutes at 37° C. Then five microliters of PGE2 (final conc. 5 μM) are transferred into the assay plate. Plate is incubated 120 minutes at 37° C.
(each concentration is measured in duplicate)

Test [2] addresses PTGER4 (EP4) (Homo sapiens (Human), UniProt P35408). The test is described as follows: cell-based.

Sequence of PTGER2 (EP2) (P43116 whole entry): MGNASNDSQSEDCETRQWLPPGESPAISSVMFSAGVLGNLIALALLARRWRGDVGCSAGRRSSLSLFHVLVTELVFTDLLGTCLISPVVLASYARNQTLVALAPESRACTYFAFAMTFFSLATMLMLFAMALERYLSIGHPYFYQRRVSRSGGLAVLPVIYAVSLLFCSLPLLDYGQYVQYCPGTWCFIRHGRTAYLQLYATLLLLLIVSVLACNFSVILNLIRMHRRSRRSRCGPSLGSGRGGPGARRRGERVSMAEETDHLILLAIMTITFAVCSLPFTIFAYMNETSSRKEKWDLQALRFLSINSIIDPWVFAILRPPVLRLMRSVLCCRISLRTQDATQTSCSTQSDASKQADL
Sequence of PTGER4 (EP4) (P35408 whole entry): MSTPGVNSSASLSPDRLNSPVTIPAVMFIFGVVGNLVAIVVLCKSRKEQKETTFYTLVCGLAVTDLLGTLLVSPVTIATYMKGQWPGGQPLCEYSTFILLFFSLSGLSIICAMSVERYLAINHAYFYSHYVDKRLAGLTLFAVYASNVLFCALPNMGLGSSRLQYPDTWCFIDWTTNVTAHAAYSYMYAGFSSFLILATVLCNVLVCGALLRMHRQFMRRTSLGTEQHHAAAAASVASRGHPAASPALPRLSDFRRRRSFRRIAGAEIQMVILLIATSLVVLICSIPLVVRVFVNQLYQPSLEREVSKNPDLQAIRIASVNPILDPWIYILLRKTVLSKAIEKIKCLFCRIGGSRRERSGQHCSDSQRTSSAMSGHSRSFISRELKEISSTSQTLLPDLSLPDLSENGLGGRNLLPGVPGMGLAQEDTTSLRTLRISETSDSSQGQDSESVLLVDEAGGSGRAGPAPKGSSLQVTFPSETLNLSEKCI

As to `CCOc1cc(-c2cc(NCCc3ccc4c(c3C)OCCO4)ncn2)ccc1CC(=O)O` [Example 506, (2-Ethoxy-4-{6-[2-(5-methyl-2,3-dihydro-benzo[1,4]dioxin-6-yl)-ethylamino]-pyrimidin-4-yl}-phenyl)-acetic acid], the results for the IC50 in test [1] and in test [2] were 172 nM and 332 nM, respectively.

For `CCOc1cc2c(cc1CCNc1cc(-c3cc(F)c(CC(=O)O)c(OCC)c3)ncn1)OCCO2` [Example 403, (2-Ethoxy-4-{6-[2-(7-ethoxy-2,3-dihydro-benzo[1,4]dioxin-6-yl)-ethylamino]-pyrimidin-4-yl}-6-fluoro-phenyl)-acetic acid], the IC50 in test [1] came out at 57 nM; in test [2], 65 nM.

As to `O=C(O)c1ccc(-c2cc(NCCc3cc(F)c4sccc4c3)ncn2)cc1OC1CCC1` [Example 534, 2-Cyclobutoxy-4-{6-[2-(7-fluoro-benzo[b]thiophen-5-yl)-ethylamino]-pyrimidin-4-yl}-benzoic acid], the IC50 is 332 nM in test [1] and 70 nM in test [2].

As to `CCOc1cc(-c2cc(NCCc3cc4ccsc4c(F)c3OC)ncn2)ccc1CC(=O)O` [Example 406, (2-Ethoxy-4-{6-[2-(7-fluoro-6-methoxy-benzo[b]thiophen-5-yl)-ethylamino]-pyrimidin-4-yl}-phenyl)-acetic acid], the IC50 stood at 45 nM in test [1] and 62 nM in test [2].

Turning to `COc1cc2c(c(C)c1CCNc1cc(-c3ccc(CC(=O)O)c(OC(C)C)c3)ncn1)OCCO2` [Example 426, (2-Isopropoxy-4-{6-[2-(7-methoxy-5-methyl-2,3-dihydro-benzo[1,4]dioxin-6-yl)-ethylamino]-pyrimidin-4-yl}-phenyl)-acetic acid], the IC50 in test [1] is 9 nM; in test [2], 46 nM.

For the molecule `COc1cc2c(cc1CCNc1cc(-c3ccc(CC(=O)O)c(OC(C)C)c3)ncn1)OCCO2` [Example 523, (2-Isopropoxy-4-{6-[2-(7-methoxy-2,3-dihydro-benzo[1,4]dioxin-6-yl)-ethylamino]-pyrimidin-4-yl}-phenyl)-acetic acid], the IC50 in test [1] stood at 227 nM; in test [2], 195 nM.

`CCOc1cc(-c2cc(NCCc3cc(F)c4sccc4c3)ncn2)ccc1-c1cc(O)no1` [Example 550, 5-(2-Ethoxy-4-{6-[2-(7-fluoro-benzo[b]thiophen-5-yl)-ethylamino]-pyrimidin-4-yl}-phenyl)-isoxazol-3-ol]: the values for the IC50 in test [1] and in test [2] were 371 nM and 63 nM, respectively.

As to `COc1cc(-c2cc(NCCc3c(OC)cc4c(c3C)OCCO4)ncn2)ccc1CC(=O)O` [Example 434, (2-Methoxy-4-{6-[2-(7-methoxy-5-methyl-2,3-dihydro-benzo[1,4]dioxin-6-yl)-ethylamino]-pyrimidin-4-yl}-phenyl)-acetic acid], the half-maximal inhibitory concentration (IC50) in test [1] is 26 nM; in test [2], 58 nM.

On to `CCOc1cc2c(cc1CCNc1cc(-c3ccc(C(=O)O)c(CC(C)C)c3)ncn1)OCCO2` [Example 417, 4-{6-[2-(7-Ethoxy-2,3-dihydro-benzo[1,4]dioxin-6-yl)-ethylamino]-pyrimidin-4-yl}-2-isobutyl-benzoic acid], for which the IC50 in test [1] stood at 38 nM; in test [2], 174 nM.

As to `CCOc1cc(-c2cc(NCCc3cc(C)c4sccc4c3)ncn2)sc1C(=O)O` [Example 391, 3-Ethoxy-5-{6-[2-(7-methyl-benzo[b]thiophen-5-yl)-ethylamino]-pyrimidin-4-yl}-thiophene-2-carboxylic acid], the IC50 was found to be 131 nM in test [1] and 19 nM in test [2].

For the molecule `O=c1c(O)c(-c2ccc(-c3cc(NCCc4cc(F)c5sccc5c4)ncn3)cc2)c1=O` [Example 536, 3-(4-{6-[2-(7-Fluoro-benzo[b]thiophen-5-yl)-ethylamino]-pyrimidin-4-yl}-phenyl)-4-hydroxy-cyclobut-3-ene-1,2-dione], the figures for the IC50 in test [1] and in test [2] were 203 nM and 28 nM, respectively.

Take `CCOc1cc2c(cc1CCNc1cc(-c3ccc(CC(=O)O)c(OC(C)C)c3)ncn1)OCCO2` [Example 425, (4-{6-[2-(7-Ethoxy-2,3-dihydro-benzo[1,4]dioxin-6-yl)-ethylamino]-pyrimidin-4-yl}-2-isopropoxy-phenyl)-acetic acid]: the IC50 is 65 nM in test [1] and 152 nM in test [2].

Turning to `COc1cc(-c2cc(NCCc3cc(F)c4sccc4c3)ncn2)ccc1-c1cc(O)no1` [Example 553, 5-(4-{6-[2-(7-Fluoro-benzo[b]thiophen-5-yl)-ethylamino]-pyrimidin-4-yl}-2-methoxy-phenyl)-isoxazol-3-ol], the IC50 amounted to 302 nM in test [1] and 80 nM in test [2].

As for `CCCOc1cc(-c2cc(NCCc3ccc4sccc4c3)ncn2)ccc1CC(=O)O` [Example 479, {4-[6-(2-Benzo[b]thiophen-5-yl-ethylamino)-pyrimidin-4-yl]-2-propoxy-phenyl}-acetic acid], the figures for the IC50 in test [1] and in test [2] were 345 nM and 158 nM, respectively.

On to `CCCc1cc(-c2cc(NCCc3ccc4scc(Cl)c4c3)ncn2)ccc1CC(=O)O` [Example 498, (4-{6-[2-(3-Chloro-benzo[b]thiophen-5-yl)-ethylamino]-pyrimidin-4-yl}-2-propyl-phenyl)-acetic acid], for which the results for the IC50 in test [1] and in test [2] were 163 nM and 107 nM, respectively.

As for `CCOc1cc(-c2cc(NCCc3cc(C(F)(F)F)c4sccc4c3)ncn2)sc1C(=O)O` [Example 488, 3-Ethoxy-5-{6-[2-(7-trifluoromethyl-benzo[b]thiophen-5-yl)-ethylamino]-pyrimidin-4-yl}-thiophene-2-carboxylic acid], the IC50 in test [1] is 723 nM; in test [2] it was 45 nM.

`COc1c(CCNc2cc(-c3ccc(CC(=O)O)c(CC(C)C)c3)ncn2)cc2ccsc2c1F` [Example 410, (4-{6-[2-(7-Fluoro-6-methoxy-benzo[b]thiophen-5-yl)-ethylamino]-pyrimidin-4-yl}-2-isobutyl-phenyl)-acetic acid]: the concentration for half-maximal inhibition (IC50) in test [1] turned out to be 153 nM; in test [2] it was 113 nM.

In the case of `CCOc1cc(-c2cc(NCCc3c(OC)cc4c(c3F)OCCO4)ncn2)ccc1C(=O)O` [Example 435, 2-Ethoxy-4-{6-[2-(5-fluoro-7-methoxy-2,3-dihydro-benzo[1,4]dioxin-6-yl)-ethylamino]-pyrimidin-4-yl}-benzoic acid], the half-inhibitory concentration (IC50) is 46 nM in test [1] and 110 nM in test [2].

Regarding `CCCc1cc(-c2cc(NCCc3c(OC)cc4ccccc4c3C)ncn2)ccc1CC(=O)O` [Example 388, (4-{6-[2-(3-Methoxy-1-methyl-naphthalen-2-yl)-ethylamino]-pyrimidin-4-yl}-2-propyl-phenyl)-acetic acid], the IC50 in test [1] was determined as 45 nM; in test [2], 13 nM.

With `CCCc1cc(-c2cc(NCCc3cc4c(cc3OC)OCCO4)ncn2)ccc1C(C)C(=O)O` (racemic) [Example 401, rac-2-(4-{6-[2-(7-Methoxy-2,3-dihydro-benzo[1,4]dioxin-6-yl)-ethylamino]-pyrimidin-4-yl]-2-propyl-phenyl)-propionic acid], the results for the IC50 in test [1] and in test [2] were 331 nM and 114 nM, respectively.

Consider `CCc1cc(-c2cc(NCCc3ccc4c(c3C)OCCO4)ncn2)ccc1CC(=O)O` [Example 513, (2-Ethyl-4-{6-[2-(5-methyl-2,3-dihydro-benzo[1,4]dioxin-6-yl)-ethylamino]-pyrimidin-4-yl}-phenyl)-acetic acid], for which the IC50 in test [1] is 158 nM; in test [2], 347 nM.

For `CCOc1cc2c(cc1CCNc1cc(-c3ccc(CC(=O)O)c(CC(C)C)c3)ncn1)OCCO2` [Example 412, (4-{6-[2-(7-Ethoxy-2,3-dihydro-benzo[1,4]dioxin-6-yl)-ethylamino]-pyrimidin-4-yl}-2-isobutyl-phenyl)-acetic acid], the IC50 in test [1] is 20 nM; in test [2] it was 40 nM.

As for `Cc1c(CCNc2cc(-c3ccc(C(=O)O)c(OC4CC4)c3)ncn2)ccc2c1OCCO2` [Example 519, 2-Cyclopropoxy-4-{6-[2-(5-methyl-2,3-dihydro-benzo[1,4]dioxin-6-yl)-ethylamino]-pyrimidin-4-yl}-benzoic acid], the IC50 in test [1] came to 19 nM; in test [2] it was 262 nM.

`CCOc1c(CC(=O)O)ccc(-c2cc(NCCc3cc(F)c4sccc4c3)ncn2)c1F` [Example 564, (2-Ethoxy-3-fluoro-4-{6-[2-(7-fluoro-benzo[b]thiophen-5-yl)-ethylamino]-pyrimidin-4-yl}-phenyl)-acetic acid]: the IC50 in test [1] was 817 nM; in test [2] it was 212 nM.

With `CCOc1cc(-c2cc(NCCc3ccc4scc(Cl)c4c3)ncn2)ccc1CC(=O)O` [Example 431, (4-{6-[2-(3-Chloro-benzo[b]thiophen-5-yl)-ethylamino]-pyrimidin-4-yl}-2-ethoxy-phenyl)-acetic acid], the IC50 in test [1] amounted to 179 nM; in test [2], 52 nM.

With `COc1cc2c(cc1CCNc1cc(-c3ccc(CC(=O)O)c(C(F)(F)F)c3)ncn1)OCCO2` [Example 525, (4-{6-[2-(7-Methoxy-2,3-dihydro-benzo[1,4]dioxin-6-yl)-ethylamino]-pyrimidin-4-yl}-2-trifluoromethyl-phenyl)-acetic acid], the figures for the IC50 in test [1] and in test [2] were 160 nM and 349 nM, respectively.

For the molecule `CCOc1cc(-c2cc(NCCc3ccc4sccc4c3C)ncn2)cc(F)c1CC(=O)O` [Example 372, (2-Ethoxy-6-fluoro-4-{6-[2-(4-methyl-benzo[b]thiophen-5-yl)-ethylamino]-pyrimidin-4-yl}-phenyl)-acetic acid], the IC50 in test [1] was found to be 75 nM; in test [2], 195 nM.

`CCOc1cc(-c2cc(NCCc3cc4ccsc4cc3OC)ncn2)cc(F)c1CC(=O)O` [Example 371, (2-Ethoxy-6-fluoro-4-{6-[2-(6-methoxy-benzo[b]thiophen-5-yl)-ethylamino]-pyrimidin-4-yl}-phenyl)-acetic acid]: the IC50 in test [1] turned out to be 86 nM; in test [2], 88 nM.

As to `COC(=O)c1sc(-c2cc(NCCc3ccc4ccccc4c3C)ncn2)cc1O` [Example 468, 3-Hydroxy-5-{6-[2-(1-methyl-naphthalen-2-yl)-ethylamino]-pyrimidin-4-yl}-thiophene-2-carboxylic acid methyl ester], the IC50 in test [1] amounted to 564 nM; in test [2], 571 nM.
